# Test results: PMC11232401, “Characterization of antimalarial activity of artemisinin-based hybrid drugs” (Antimicrobial Agents and Chemotherapy, 2024)
# Read-outs that look alike come from different tables or passages of the source.
# Assays:
# [1] = tested on: 3D7 strain of P. falciparum; assay: Host cell-mediated drug degradation: antiplasmodial activity of uRBC supernatants; type: cell-based, Plasmodium falciparum; conditions: for IC50: Plasmodium falciparum, 3D7, 0.16 h, 500 nM drug, 3D7, SYBR Green I, median ± SEM (AQ mean, 95% CI), read-out: IC50 of supernatants harvested at 0.16 h; for Fold changes (24 h/0.16 h): 3D7, ratio of IC50 at 24 h to IC50 at 0.16 h
# Protocol: Each well of 96-well plates was filled with 125 µL drug (1000 nM) and 125 µL uninfected red blood cells (uRBC), which were mixed to obtain a final drug concentration of 500 nM and 2.5% or 1.0% hematocrit. The plates were incubated at 37°C in the standard gas mixture. After each time point (10 min, 6 h, and 24 h), supernatants were carefully harvested and stored at −80°C until use. […] Next, supernatants were diluted in a complete medium in six different dilutions and were aliquoted in new plates. The antimalarial activity of these supernatants and freshly dissolved drugs was determined in an asynchronous parasite culture of P. falciparum (3D7, D10, and W2 strains) for 72 h using the same method described above, and parasite viability was assessed by the pLDH ([38]) and SYBR Green I ([41]) methods. Only the experiments where the IC50 values of the supernatants harvested at 10 min were the same as those of the respective fresh drugs were considered for determining equivalent drug concentration. […] Decay in drug concentration was estimated by using the normalized slope values calculated from linear regression fits using the slope values of a standard curve as reference. Three independent experiments were performed using two replicates.
# Figure S5: Data associated to Figure 3 in the main text of the manuscript. Panel A: Representative response-concentration curves of the antiplasmodial activity of supernatant-derived uRBC (2.5% hematocrit) harvested at indicated times (0.16, 6, and 24 h). Drug activity on parasite viability was determined 72 h after parasite incubation (3D7 strain, asynchronous). Values were subtracted from control (without treatment), transformed, and normalized to calculate nonlinear fit. Parasite viability was determined by SYBR Green I. Values are mean and error bars are the standard deviation of a single experiment, each concentration in duplicate. […] Footnotes: ^[a] Parasite viability was determined by SYBR Green I. ^[b^] Parasite viability was determined by pLDH readout. Values are median ± SEM of three independent experiments, each concentration in duplicate. ^[c^] […] These values are expressed as mean and 95% confidence interval (CI) of one experiment, each concentration in duplicate. […] Unpaired two-tailed t-test at 95% CI: *p <0.05; **p <0.01.
# [2] = tested on: Asynchronous NF54 strain of P. falciparum; assay: Speed of drug activity (pLDH); type: cell-based, Plasmodium falciparum; conditions: for IC50: Plasmodium falciparum, NF54, asynchronous, mean (95% CI)
# Protocol: Each well of 96-well plates was filled with 100 µL drug and 100 µL culture containing asynchronous P. falciparum (NF54 strain) parasites, which were mixed to obtain a final parasitemia of 1.0% to 1.5% and 1.0% hematocrit. The plates were incubated for 24, 48, and 72 h at 37°C with a standard gas mixture. […] Parasite viability was measured using the pLDH method, and IC50 values were calculated as described above. Three independent experiments were performed using two technical replicates.
# Figure S3: Speed of antiparasitic activity of hybrids (1) and (2) against CQ-sensitive NF54 strain of P. falciparum. Panel A: Representative response-concentration curves. Panel B: A table summarizing the results. Footnotes for table: ^[a] Parasite viability was accessed at each indicated time (24, 48, or 72 h) after addition of drugs. Values are the mean and 95% confidence interval of one experiment using each concentration of compounds in duplicate. Parasite viability was determined by parasite lactate dehydrogenase (pLDH) assay. DHA = dihydroartemisinin; ATO = atovaquone.
# [3] = tested on: quiescent ART-resistant parasites (F32-ART); assay: Quiescent-stage survival assay (QSA); type: cell-based, Plasmodium falciparum; conditions: threshold of activity 6 days
# Protocol: The QSA was performed as previously described to determine the drug activity on quiescent ART-resistant parasites ([11]). F32-ART culture parasites were synchronized at the ring stage and adjusted to 3% parasitemia and 2% hematocrit. […] At the end of treatment, parasites from each of the three conditions were washed with RPMI-1640 medium and replaced in new wells in a drug-free culture medium with 10% human serum. Parasitemia was determined daily by thin blood smears until the cultures reached their initial parasitemia (3%), which was defined as the recrudescence day ([11]). The recrudescence capacity of parasites exposed in conditions A and B was compared to determine whether the drug was active on quiescent parasites. Condition C was designed to check that the concentration at which the drug was tested acted on proliferating parasites. If no parasite recrudescence was observed, the experiment was stopped.
# [4] = In vitro metabolic stability assay in microsomes; type: in vitro ADME; conditions: for half-life at 1 µM: read-out: Degradation half-life; for microsomal CLint at 1 µM: 0.4 mg/mL
# Protocol: In vitro microsomal stability assay was performed in duplicate in a 96-well microtiter plate, using a single-point experiment design ([42]). Test compounds (1 µM) were incubated individually in human (pool of 50, mixed gender), rat (pool of 711, male Sprague Dawley), and mouse (pool of 1,634, male CD1) liver microsomes (Xenotech, Kansas, USA) to a final protein concentration of 0.4 mg/mL, suspended in 0.1 M phosphate buffer (pH 7.4). Incubations were started by the addition of NADPH (1 mM) as a cofactor and shaken for 30 min at 37°C. The reactions were quenched by the addition of 300 µL of ice-cold acetonitrile containing an internal standard (carbamazepine, 0.0236 µg/mL) and centrifuged. The supernatant was transferred to a fresh 96-well plate and analyzed by liquid chromatography-tandem mass spectrometry (LC-MS/MS) (Agilent Rapid Resolution HPLC, AB SCIEX 4500 MS). The relative loss of the parent compound over time was monitored, and plots (concentration vs time) were prepared per compound to determine the first-order rate constant for compound depletion. This was in turn used to calculate half-life, in vitro intrinsic clearance (Clint), and in vivo hepatic extraction ratio ([43]).
smiles,measurement,setting,value
"CCN(CC)Cc1cc(Nc2ccnc3cc(Cl)ccc23)ccc1O [AQ, amodiaquine, reference compound]",IC50,[1]; uRBC 1.0% hematocrit,3.9 nM
same,IC50,[1]; uRBC 2.5% hematocrit,3.6 nM
same,Fold changes (24 h/0.16 h),[1]; uRBC 1.0% hematocrit,0.76
same,Fold changes (24 h/0.16 h),[1]; uRBC 2.5% hematocrit,0.91
"O=C1C(O)=C([C@H]2CC[C@H](c3ccc(Cl)cc3)CC2)C(=O)c2ccccc21 [ATO, atovaquone, reference compound]",IC50,"[2]; viability at 24 h, read-out: IC50, 24 h",> 600 nM
same,IC50,"[2]; viability at 48 h, read-out: IC50, 48 h",5.3 nM
same,IC50,"[2]; viability at 72 h, read-out: IC50, 72 h",0.78 nM
same,Conclusion (speed of antiparasitic activity),"[2]; from IC50 at 24, 48, 72 h",Slow-acting
same,delay of recrudescence in the QSA versus DHA alone,[3],up to 10 days
"C[C@H]1[C@H](OC(=O)CCC(=O)O)O[C@@H]2O[C@@]3(C)CC[C@H]4[C@H](C)CC[C@@H]1[C@@]24OO3 [Artesunate, artesunate, reference compound]",half-life at 1 µM,"[4]; both sexes, pH 7.4, human liver microsomes",7 min
same,microsomal CLint at 1 µM,"[4]; both sexes, human liver microsomes, pH 7.4",250 µL/min/mg
same,Drug remaining after 30 min,[4]; human liver microsomes,5%
same,half-life at 1 µM,"[4]; male, CD1, pH 7.4, mouse liver microsomes",4 min
same,microsomal CLint at 1 µM,"[4]; male, CD1, mouse liver microsomes, pH 7.4",429 µL/min/mg
same,half-life at 1 µM,"[4]; male, Sprague Dawley, pH 7.4, rat liver microsomes",4 min
same,microsomal CLint at 1 µM,"[4]; male, Sprague Dawley, rat liver microsomes, pH 7.4",442 µL/min/mg
same,Drug remaining after 30 min,[4]; mouse liver microsomes,0.6%
same,Drug remaining after 30 min,[4]; rat liver microsomes,0.5%
